Test [1] concerns the target Ephrin type-A receptor 6 (Homo sapiens) (UniProt Q9UF33). As to the kind of experiment: Inhibition of wild-type human partial length EPHA6 (Y700 to E1046 residues) expressed in bacterial expression system at 1 uM by Kinomescan method relative to control.
The target in test [2] is Serine/threonine-protein kinase 32C (Homo sapiens) (UniProt Q86UX6). As to the kind of experiment: Inhibition of wild-type human partial length YANK3 (M68 to G486 residues) expressed in bacterial expression system at 1 uM by Kinomescan method relative to control.
Test [3] deals with Mitotic checkpoint serine/threonine-protein kinase BUB1 (Homo sapiens) (UniProt O43683). Kind of test: Inhibition of wild-type human partial length BUB1 (Q724 to K1085 residues) expressed in mammalian expression system at 1 uM by Kinomescan method relative to control.
Test [4] has as its target Dual specificity tyrosine-phosphorylation-regulated kinase 1A (Homo sapiens) (UniProt Q13627). Kind of test: Inhibition of wild-type human partial length DYRK1A (H129 to S509 residues) expressed in mammalian expression system at 1 uM by Kinomescan method relative to control.
Test [5] has as its target Tyrosine-protein kinase Fes/Fps (Homo sapiens) (UniProt P07332). As to the kind of experiment: Inhibition of wild-type human partial length FES (I527 to R822 residues) expressed in bacterial expression system at 1 uM by Kinomescan method relative to control.
Test [6] concerns the target Dual specificity protein kinase CLK1 (Homo sapiens) (UniProt P49759). Kind of test: Inhibition of wild-type human full length CLK1 (M1 to I484 residues) expressed in bacterial expression system at 1 uM by Kinomescan method relative to control.
The target in test [7] is Mitogen-activated protein kinase kinase kinase 10 (Homo sapiens) (UniProt Q02779). Kind of test: Inhibition of wild-type human partial length MLK2 (V52 to W380 residues) expressed in bacterial expression system at 1 uM by Kinomescan method relative to control.
The subject of test [8] is Proto-oncogene tyrosine-protein kinase receptor Ret (Homo sapiens), P07949 [M918T]. Kind of test: Inhibition of human partial length RET M918T mutant (E713 to D1014 residues) expressed in bacterial expression system at 1 uM by Kinomescan method relative to control.
For test [9], the target named is Interleukin-1 receptor-associated kinase 4 (Homo sapiens) (UniProt Q9NWZ3). Kind of test: Inhibition of wild-type human partial length IRAK4 (M1 to S460 residues) expressed in mammalian expression system at 1 uM by Kinomescan method relative to control.
Test [10] addresses Cyclin-dependent kinase-like 5 (Homo sapiens) (UniProt O76039). As to the kind of experiment: Inhibition of wild-type human partial length CDKL5 (M1 to S337 residues) expressed in mammalian expression system at 1 uM by Kinomescan method relative to control.
Test [11] concerns the target Serine/threonine-protein kinase NIM1 (Homo sapiens) (UniProt Q8IY84). Kind of test: Inhibition of wild-type human partial length NIM1 (Q44 to N355 residues) expressed in mammalian expression system at 1 uM by Kinomescan method relative to control.
In test [12] the target is Rho-associated protein kinase 1 (Homo sapiens) (UniProt Q13464). As to the kind of experiment: Inhibition of wild-type human partial length ROCK1 (M1 to R415 residues) expressed in mammalian expression system at 1 uM by Kinomescan method relative to control.
Test [13] relates to Tyrosine-protein kinase ABL1 (Homo sapiens), P00519 [H396P]. As to the kind of experiment: Inhibition of human phosphorylated ABL1 H396P mutant (S229 to K512 residues) expressed in mammalian expression system at 10 uM by Kinomescan method relative to control.
The target of test [14] is Casein kinase I isoform alpha (Homo sapiens) (UniProt P48729). Kind of test: Inhibition of wild-type human partial length CSNK1A1 (M1 to L450 residues) expressed in mammalian expression system at 10 uM by Kinomescan method relative to control.
For test [15], the target named is Tyrosine-protein kinase Fyn (Homo sapiens) (UniProt P06241). As to the kind of experiment: Inhibition of wild-type human partial length FYN (T243 to L534 residues) expressed in bacterial expression system at 10 uM by Kinomescan method relative to control.
Test [16] has as its target Serine/threonine-protein kinase MRCK beta (Homo sapiens) (UniProt Q9Y5S2). Kind of test: Inhibition of wild-type human partial length MRCKB (L56 to S417 residues) expressed in bacterial expression system at 10 uM by Kinomescan method relative to control.
The target in test [17] is Tyrosine-protein kinase ITK/TSK (Homo sapiens) (UniProt Q08881). As to the kind of experiment: Inhibition of wild-type human partial length ITK (R335 to L620 residues) expressed in bacterial expression system at 10 uM by Kinomescan method relative to control.
The test system of test [18] is Serine/threonine-protein kinase B-raf (Homo sapiens), P15056 [V600E]. As to the kind of experiment: Inhibition of human partial length BRAF V600E mutant (S429 to E741 residues) expressed in mammalian expression system at 10 uM by Kinomescan method relative to control.
The test system of test [19] is eIF-2-alpha kinase GCN2 (Homo sapiens), Q9P2K8 [S808G]. Kind of test: Inhibition of wild-type human partial length GCN2 S808G mutant kinase domain 2 (R585 to T1018 residues) expressed in bacterial expression system at 10 uM by Kinomescan method relative to control.
Test [20] relates to Tyrosine-protein kinase ABL1 (Homo sapiens), P00519 [T315I]. Kind of test: Inhibition of human phosphorylated ABL1 T315I mutant (S229 to K512 residues) expressed in mammalian expression system at 10 uM by Kinomescan method relative to control.
The target of test [21] is Platelet-derived growth factor receptor alpha (Homo sapiens) (UniProt P16234). As to the kind of experiment: Inhibition of wild-type human partial length PDGFRA (V575 to D1002 residues) expressed in mammalian expression system at 10 uM by Kinomescan method relative to control.
The target in test [22] is Serine/threonine-protein kinase PAK 3 (Homo sapiens) (UniProt O75914). Kind of test: Inhibition of wild-type human full length PAK3 (M1 to R544 residues) expressed in bacterial expression system at 10 uM by Kinomescan method relative to control.
For test [23], the target named is TRAF2 and NCK-interacting protein kinase (Homo sapiens) (UniProt Q9UKE5). Kind of test: Inhibition of wild-type human partial length TNIK (D4 to K311 residues) expressed in bacterial expression system at 10 uM by Kinomescan method relative to control.
Test [24] has as its system Fibroblast growth factor receptor 3 (Homo sapiens), P22607 [G697C]. As to the kind of experiment: Inhibition of human partial length FGFR3 G697C mutant (R442 to S771 residues) expressed in bacterial expression system at 10 uM by Kinomescan method relative to control.
Test [25] deals with Serine/threonine-protein kinase PLK1 (Homo sapiens) (UniProt P53350). As to the kind of experiment: Inhibition of wild-type human partial length PLK1 (A33 to F325 residues) expressed in mammalian expression system at 10 uM by Kinomescan method relative to control.
The target of test [26] is Serine/threonine-protein kinase PAK 2 (Homo sapiens) (UniProt Q13177). Kind of test: Inhibition of wild-type human partial length PAK2 (P151 to R525 residues) expressed in bacterial expression system at 10 uM by Kinomescan method relative to control.
Sequence of Serine/threonine-protein kinase PAK 2 (Homo sapiens) (Q13177 whole entry, the tested form may be a part): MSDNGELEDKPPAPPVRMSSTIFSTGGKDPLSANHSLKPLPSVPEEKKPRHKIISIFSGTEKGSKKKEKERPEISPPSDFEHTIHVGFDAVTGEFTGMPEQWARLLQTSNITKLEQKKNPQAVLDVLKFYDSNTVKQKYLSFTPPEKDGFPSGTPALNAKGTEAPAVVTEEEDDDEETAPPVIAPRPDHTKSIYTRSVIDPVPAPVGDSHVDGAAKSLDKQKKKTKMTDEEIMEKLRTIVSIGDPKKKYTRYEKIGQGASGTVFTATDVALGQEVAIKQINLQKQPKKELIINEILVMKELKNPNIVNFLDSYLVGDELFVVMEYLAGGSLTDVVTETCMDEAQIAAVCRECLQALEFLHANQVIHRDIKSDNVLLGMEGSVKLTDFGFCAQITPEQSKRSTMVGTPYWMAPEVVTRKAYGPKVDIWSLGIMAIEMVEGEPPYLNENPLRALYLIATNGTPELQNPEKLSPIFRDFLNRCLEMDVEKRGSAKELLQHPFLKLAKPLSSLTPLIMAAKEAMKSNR

Sequence of Mitotic checkpoint serine/threonine-protein kinase BUB1 (Homo sapiens) (O43683 whole entry, looked up, the tested form may be a part): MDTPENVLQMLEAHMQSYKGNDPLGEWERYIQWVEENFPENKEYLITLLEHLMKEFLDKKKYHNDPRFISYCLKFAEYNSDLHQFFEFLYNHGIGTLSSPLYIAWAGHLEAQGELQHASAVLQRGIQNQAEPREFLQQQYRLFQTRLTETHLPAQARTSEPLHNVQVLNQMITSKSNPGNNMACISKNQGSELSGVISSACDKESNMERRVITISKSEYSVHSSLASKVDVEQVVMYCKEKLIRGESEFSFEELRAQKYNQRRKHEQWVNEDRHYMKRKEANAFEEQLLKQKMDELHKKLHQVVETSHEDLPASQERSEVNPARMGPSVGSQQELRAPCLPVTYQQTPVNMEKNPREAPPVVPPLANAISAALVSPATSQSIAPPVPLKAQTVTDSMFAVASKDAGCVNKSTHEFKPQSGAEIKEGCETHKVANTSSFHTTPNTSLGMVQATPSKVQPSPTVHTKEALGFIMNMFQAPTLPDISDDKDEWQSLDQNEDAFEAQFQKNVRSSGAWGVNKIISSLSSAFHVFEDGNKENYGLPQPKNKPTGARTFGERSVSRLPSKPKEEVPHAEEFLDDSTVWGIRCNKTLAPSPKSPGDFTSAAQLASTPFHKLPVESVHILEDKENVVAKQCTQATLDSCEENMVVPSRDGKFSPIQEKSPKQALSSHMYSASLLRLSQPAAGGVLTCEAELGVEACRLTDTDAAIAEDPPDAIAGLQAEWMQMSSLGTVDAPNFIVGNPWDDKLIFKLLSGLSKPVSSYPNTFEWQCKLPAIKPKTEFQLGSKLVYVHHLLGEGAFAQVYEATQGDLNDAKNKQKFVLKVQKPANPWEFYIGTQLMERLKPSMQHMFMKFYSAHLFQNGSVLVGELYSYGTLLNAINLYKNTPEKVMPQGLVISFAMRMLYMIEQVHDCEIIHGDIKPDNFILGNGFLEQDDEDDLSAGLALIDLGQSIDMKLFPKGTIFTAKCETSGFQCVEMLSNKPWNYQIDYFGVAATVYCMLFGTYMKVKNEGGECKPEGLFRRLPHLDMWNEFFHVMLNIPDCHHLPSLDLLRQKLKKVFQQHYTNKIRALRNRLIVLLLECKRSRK
Sequence of TRAF2 and NCK-interacting protein kinase (Homo sapiens) (Q9UKE5 whole entry, looked up, the tested form may be a part): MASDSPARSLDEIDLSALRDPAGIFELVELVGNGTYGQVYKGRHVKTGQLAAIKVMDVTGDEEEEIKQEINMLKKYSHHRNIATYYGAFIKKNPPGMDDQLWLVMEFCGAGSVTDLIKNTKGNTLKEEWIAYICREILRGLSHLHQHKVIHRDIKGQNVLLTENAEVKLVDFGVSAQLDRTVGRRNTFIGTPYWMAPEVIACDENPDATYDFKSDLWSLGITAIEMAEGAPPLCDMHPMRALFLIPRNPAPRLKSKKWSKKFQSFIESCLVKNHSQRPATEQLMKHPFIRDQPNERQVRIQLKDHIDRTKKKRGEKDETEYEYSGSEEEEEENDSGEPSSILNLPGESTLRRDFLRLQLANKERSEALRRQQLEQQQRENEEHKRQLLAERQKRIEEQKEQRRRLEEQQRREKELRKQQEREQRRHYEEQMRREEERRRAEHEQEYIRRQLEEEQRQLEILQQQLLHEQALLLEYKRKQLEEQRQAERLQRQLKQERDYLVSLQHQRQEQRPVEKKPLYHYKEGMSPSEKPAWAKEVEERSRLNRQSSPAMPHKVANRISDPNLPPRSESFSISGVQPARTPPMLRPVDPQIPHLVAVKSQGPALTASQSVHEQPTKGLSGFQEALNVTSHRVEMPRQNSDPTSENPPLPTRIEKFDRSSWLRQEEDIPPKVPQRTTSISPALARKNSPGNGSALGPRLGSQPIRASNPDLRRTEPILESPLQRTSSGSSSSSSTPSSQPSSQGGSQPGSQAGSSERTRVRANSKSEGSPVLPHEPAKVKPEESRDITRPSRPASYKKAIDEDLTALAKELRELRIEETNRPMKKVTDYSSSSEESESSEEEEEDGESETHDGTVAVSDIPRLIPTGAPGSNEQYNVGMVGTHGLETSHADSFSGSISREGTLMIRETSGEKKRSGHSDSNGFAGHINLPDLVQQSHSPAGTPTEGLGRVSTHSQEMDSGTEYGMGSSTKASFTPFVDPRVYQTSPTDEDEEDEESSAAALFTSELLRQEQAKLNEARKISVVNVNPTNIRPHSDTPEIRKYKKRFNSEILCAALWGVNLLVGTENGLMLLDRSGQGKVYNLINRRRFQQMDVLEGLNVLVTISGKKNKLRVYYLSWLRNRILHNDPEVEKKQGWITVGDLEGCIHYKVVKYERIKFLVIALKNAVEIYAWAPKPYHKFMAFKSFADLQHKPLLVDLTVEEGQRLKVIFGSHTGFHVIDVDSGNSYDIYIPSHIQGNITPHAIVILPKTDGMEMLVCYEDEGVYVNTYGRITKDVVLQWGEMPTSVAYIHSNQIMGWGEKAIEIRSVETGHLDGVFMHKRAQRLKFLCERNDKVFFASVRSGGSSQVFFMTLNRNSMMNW
Sequence of Interleukin-1 receptor-associated kinase 4 (Homo sapiens) (Q9NWZ3 whole entry, the tested form may be a part): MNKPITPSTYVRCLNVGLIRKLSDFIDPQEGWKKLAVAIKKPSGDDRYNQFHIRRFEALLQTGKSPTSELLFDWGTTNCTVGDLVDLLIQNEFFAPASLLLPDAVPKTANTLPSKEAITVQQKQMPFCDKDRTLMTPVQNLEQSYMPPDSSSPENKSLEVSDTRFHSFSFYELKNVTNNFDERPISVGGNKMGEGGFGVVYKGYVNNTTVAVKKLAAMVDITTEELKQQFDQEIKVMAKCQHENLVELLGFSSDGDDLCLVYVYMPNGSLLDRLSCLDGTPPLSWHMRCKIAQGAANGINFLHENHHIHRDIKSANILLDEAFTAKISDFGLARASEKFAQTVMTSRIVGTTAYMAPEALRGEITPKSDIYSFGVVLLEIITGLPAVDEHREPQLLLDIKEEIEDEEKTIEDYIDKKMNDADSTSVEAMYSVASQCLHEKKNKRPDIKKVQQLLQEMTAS
Sequence of Tyrosine-protein kinase Fyn (Homo sapiens) (P06241 2-537 limits assumed): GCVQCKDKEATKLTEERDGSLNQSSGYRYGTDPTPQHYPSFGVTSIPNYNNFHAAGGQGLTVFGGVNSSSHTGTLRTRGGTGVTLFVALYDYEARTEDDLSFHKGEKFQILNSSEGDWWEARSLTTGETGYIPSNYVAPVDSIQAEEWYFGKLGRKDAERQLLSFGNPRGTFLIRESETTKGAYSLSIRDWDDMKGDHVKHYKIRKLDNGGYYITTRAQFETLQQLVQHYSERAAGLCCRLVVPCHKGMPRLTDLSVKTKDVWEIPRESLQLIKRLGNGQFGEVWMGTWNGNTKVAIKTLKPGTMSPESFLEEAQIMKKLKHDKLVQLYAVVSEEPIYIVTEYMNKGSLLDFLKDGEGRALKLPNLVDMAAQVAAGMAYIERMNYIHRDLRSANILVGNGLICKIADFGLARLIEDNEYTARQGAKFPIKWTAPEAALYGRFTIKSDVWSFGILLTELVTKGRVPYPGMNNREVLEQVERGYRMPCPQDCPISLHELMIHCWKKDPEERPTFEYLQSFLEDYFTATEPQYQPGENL
Sequence of Proto-oncogene tyrosine-protein kinase receptor Ret (Homo sapiens), P07949 [M918T] (P07949 whole entry M918T, the tested form may be a part): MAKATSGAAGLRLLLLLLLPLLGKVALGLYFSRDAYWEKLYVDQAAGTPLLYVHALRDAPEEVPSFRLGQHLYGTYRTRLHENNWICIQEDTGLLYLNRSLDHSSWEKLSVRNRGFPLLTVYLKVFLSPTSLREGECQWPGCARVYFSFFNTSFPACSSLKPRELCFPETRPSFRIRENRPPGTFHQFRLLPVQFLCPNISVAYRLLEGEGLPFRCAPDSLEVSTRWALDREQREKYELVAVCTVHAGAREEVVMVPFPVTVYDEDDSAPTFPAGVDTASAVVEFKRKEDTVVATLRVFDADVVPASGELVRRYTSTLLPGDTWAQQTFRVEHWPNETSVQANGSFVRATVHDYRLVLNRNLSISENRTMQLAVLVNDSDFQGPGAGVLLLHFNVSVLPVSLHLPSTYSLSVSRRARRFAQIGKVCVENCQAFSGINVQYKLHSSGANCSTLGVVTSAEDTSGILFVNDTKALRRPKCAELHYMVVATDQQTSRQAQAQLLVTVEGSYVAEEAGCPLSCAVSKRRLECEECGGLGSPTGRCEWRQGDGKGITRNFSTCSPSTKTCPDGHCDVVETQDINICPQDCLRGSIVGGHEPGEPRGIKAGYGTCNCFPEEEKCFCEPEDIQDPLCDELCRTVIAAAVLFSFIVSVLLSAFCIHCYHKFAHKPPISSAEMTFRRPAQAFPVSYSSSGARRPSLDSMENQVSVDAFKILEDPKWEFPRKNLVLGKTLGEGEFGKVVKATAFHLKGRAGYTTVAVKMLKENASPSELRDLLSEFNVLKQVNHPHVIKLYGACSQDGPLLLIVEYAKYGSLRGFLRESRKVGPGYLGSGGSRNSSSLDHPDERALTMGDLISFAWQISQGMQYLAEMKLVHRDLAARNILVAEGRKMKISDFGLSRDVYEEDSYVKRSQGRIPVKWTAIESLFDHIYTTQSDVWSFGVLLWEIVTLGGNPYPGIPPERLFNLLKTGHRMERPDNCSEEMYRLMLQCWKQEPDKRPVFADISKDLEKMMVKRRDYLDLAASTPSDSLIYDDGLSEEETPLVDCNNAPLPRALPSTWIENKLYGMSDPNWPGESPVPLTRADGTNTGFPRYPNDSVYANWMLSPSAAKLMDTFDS

Usually inhibition stands for the drop in the measured response relative to a control, in per cent. Read a low inhibition as a weak effect. `O=C(Nc1cccc([C@@H]2CN(c3ncnc4[nH]ccc34)CCN2CCO)c1)Nc1c(F)cccc1N1CCCC1`: the inhibition in test [1] was 99%; in test [2], 100%; in test [3], 87%; in [4], 87%; in test [5], 100%; in test [6], 84%. The inhibition in test [7] was determined as 74%; in test [8] it was 0.05%; in test [9], 91%; in test [10], 100%; in [11], 93%; in test [12], 71%.

As for `O=C(Nc1cccc([C@H]2CCCN(c3ncnc4[nH]ccc34)C2)c1)Nc1ccccc1N1CCCC1`, the inhibition in [13] was found to be 51%; in test [14], 62%; in [15], 67%; in test [16], 90%; in [17] it was 7%; in test [18], 16%. The inhibition in test [19] is 46%; in test [20], 56%; in test [21] it was 0.6%; in test [22], 4.8%; in [23], 26%; in test [24], 53%. Further, the inhibition was found to be 72% in [25] and 88% in [26].

Values taken from ChEMBL document CHEMBL4387741, “Optimization of novel reversible Bruton's tyrosine kinase inhibitors identified using Tethering-fragment-based screens” (Bioorg Med Chem, 2019).
